In the supplement of paper PMC11061612:

How the values were obtained:
[1] = tested on: NCI-H1648 (Lung Adenocarcinoma); assay: Bliss excess, mean over the matrix (fraction); higher = more synergy
Summary of the method: (§1)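 Cell lines grown in DMEM/F12 or RPMI with 10% FBS were plated in 1536-well plates and held 24 hours at 37°C, 5% CO2 before 72 hours of exposure to two-drug dose matrices, with DMSO typically at 0.2%. CellTiter-Glo 2.0 luminescence gave viability, which was converted to inhibition. Vehicle wells were set to 0 and blank wells to 1. Combination Emax is the second-highest inhibition in the matrix, and Bliss excess is the observed combination effect minus the expected EA + EB − EA·EB, where EA and EB are the single-agent effects.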

[2] = tested on: RPMI-8402 (T-Lymphoblastic Leukemia); assay: as above
Summary of the method: as §1

[3] = tested on: SNU-1 (Gastric Carcinoma); assay: as above
Summary of the method: as §1

[4] = tested on: NCI-H2009 (Lung Adenocarcinoma); assay: as above
Summary of the method: as §1

SK-MEL-24 (Melanoma) = assay: as above
Summary of the method: as §1

[5] = tested on: NCI-H1975 (Lung Adenocarcinoma); assay: as above
Summary of the method: as §1

[6] = tested on: JURL-MK1 (Chronic Myelogenous Leukemia); assay: as above
Summary of the method: as §1

[7] = tested on: NCI-H1648 (Lung Adenocarcinoma); assay: combination Emax (second highest fraction inhibited in the dose matrix, 72 h); higher = more inhibition; extreme values may be limits of the assay
Summary of the method: as §1

[8] = tested on: JJN-3 (Plasma Cell Myeloma); assay: as above
Summary of the method: as §1

[9] = tested on: SBC-3 (Small Cell Lung Carcinoma); assay: as above
Summary of the method: as §1

[10] = tested on: SW1463 (Colorectal Carcinoma); assay: as above
Summary of the method: as §1

[11] = tested on: CAL-85-1 (Breast Carcinoma); assay: as above
Summary of the method: as §1

[12] = tested on: HT-3 (Cervical Carcinoma); assay: as above
Summary of the method: as §1

[13] = tested on: SNU-1 (Gastric Carcinoma); assay: as above
Summary of the method: as §1

[14] = tested on: MRK-nu-1 (Breast Carcinoma); assay: as above
Summary of the method: as §1

[15] = tested on: NCI-H1048 (Small Cell Lung Carcinoma); assay: as above
Summary of the method: as §1

A375 (Melanoma) = assay: as above
Summary of the method: as §1

MG-63 (Osteosarcoma) = assay: as above
Summary of the method: as §1

[16] = tested on: NCI-H2023 (Non-Small Cell Lung Carcinoma); assay: as above
Summary of the method: as §1

[17] = tested on: OVKATE (Ovarian Carcinoma); assay: as above
Summary of the method: as §1
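For Bliss excess, mean over the matrix in this document: after 72 h of two-drug dosing.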

Row | SMILES | Bliss excess [1] | Bliss excess [2] | Bliss excess [3] | Bliss excess [4] | Bliss excess (SK-MEL-24 (Melanoma)) | Bliss excess [5] | Bliss excess [6] | combination Emax [7] | combination Emax [8] | combination Emax [9] | combination Emax [10] | combination Emax [11] | combination Emax [12] | combination Emax [13] | combination Emax [14] | combination Emax [15] | combination Emax (A375 (Melanoma)) | combination Emax (MG-63 (Osteosarcoma)) | combination Emax [16] | combination Emax [17]
1 | CN(C)CCCOc1ccc(-c2ccc3ncc4c(c3c2)n(C2CCOCC2)c(=O)n4C)cn1 [AZD0156] + C=CCn1c(=O)c2cnc(Nc3ccc(N4CCN(C)CC4)cc3)nc2n1-c1cccc(C(C)(C)O)n1 [AZD1775] (first compound max 1 µM, partner max 1 µM) | -0.0468 | 0.0026 | -0.003 | -0.0695 | -0.0255 | 0.017 | 0.0119 | 0.587 | 0.661 | 0.442 | 0.422 | 0.363 | 0.331 | 0.623 | 0.246 | 0.664 | 0.535 | 0.526 | 0.633 | 0.336
2 | CN(C)CCCOc1ccc(-c2ccc3ncc4c(c3c2)n(C2CCOCC2)c(=O)n4C)cn1 [AZD0156] + CCN(CCO)CCCOc1ccc2c(Nc3cc(CC(=O)Nc4cccc(F)c4)[nH]n3)ncnc2c1 [AZD2811] (first compound max 1 µM, 7x7, partner max 1 µM) | -0.0327 | -0.0022 | 0.093 | -0.0224 | -0.0401 | 0.0049 | 0.0538 | 0.214 | 0.404 | 0.409 | 0.108 | 0.104 | 0.0658 | 0.434 | 0.631 | 0.547 | 0.33 | 0.285 | 0.252 | 0.127
3 | CN(C)CCCOc1ccc(-c2ccc3ncc4c(c3c2)n(C2CCOCC2)c(=O)n4C)cn1 [AZD0156] + C[C@@H]1COCCN1C2=NC(=NC(=C2)C3(CC3)[S@](=N)(=O)C)C4=C5C=CNC5=NC=C4 [AZD6738] (first compound max 1 µM, 7x7, partner max 10 µM) | 0.005 | 0.0028 | 0.0461 | -0.0045 | -0.0159 | 0.0026 | 0.0269 | 0.676 | 0.938 | 0.798 | 0.558 | 0.446 | 0.609 | 0.769 | 0.648 | 0.468 | 0.815 | 0.706 | 0.836 | 0.257
4 | CN(C)CCCOc1ccc(-c2ccc3ncc4c(c3c2)n(C2CCOCC2)c(=O)n4C)cn1 [AZD0156] + O=C(c1cc(Cc2n[nH]c(=O)c3ccccc23)ccc1F)N1CCN(C(=O)C2CC2)CC1 [Olaparib] (first compound max 3 µM, partner max 3 µM) | 0.0271 | 0.244 | 0.032 | 0.16 | 0.0037 | 0.0548 | 0.157 | 0.396 | 0.213 | 0.465 | 0.169 | 0.172 | 0.321 | 0.182 | 0.542 | 0.352 | 0.29 | 0.548 | 0.369 | 0.214
5 | C=CCn1c(=O)c2cnc(Nc3ccc(N4CCN(C)CC4)cc3)nc2n1-c1cccc(C(C)(C)O)n1 [AZD1775] + O=C(c1cc(Cc2n[nH]c(=O)c3ccccc23)ccc1F)N1CCN(C(=O)C2CC2)CC1 [Olaparib] (first compound max 1 µM, partner max 10 µM) | -0.0216 | 0.0113 | -0.0425 | 0.0075 | -0.0194 | -0.0248 | 0.001 | 0.702 | 0.645 | 0.621 | 0.521 | 0.394 | 0.339 | 0.569 | 0.336 | 0.874 | 0.476 | 0.548 | 0.717 | 0.311
6 | CCN(CCO)CCCOc1ccc2c(Nc3cc(CC(=O)Nc4cccc(F)c4)[nH]n3)ncnc2c1 [AZD2811] + C=CCn1c(=O)c2cnc(Nc3ccc(N4CCN(C)CC4)cc3)nc2n1-c1cccc(C(C)(C)O)n1 [AZD1775] (first compound max 1 µM, partner max 1 µM) | -0.0388 | -0.0544 | 0.0679 | 0.0477 | -0.0378 | 0.0001 | -0.0001 | 0.439 | 0.694 | 0.539 | 0.48 | 0.297 | 0.241 | 0.675 | 0.373 | 0.859 | 0.482 | 0.393 | 0.574 | 0.233
7 | CCN(CCO)CCCOc1ccc2c(Nc3cc(CC(=O)Nc4cccc(F)c4)[nH]n3)ncnc2c1 [AZD2811] + C[C@@H]1COCCN1C2=NC(=NC(=C2)C3(CC3)[S@](=N)(=O)C)C4=C5C=CNC5=NC=C4 [AZD6738] (first compound max 1 µM, 7x7, partner max 10 µM) | -0.0898 | -0.0312 | 0.0129 | -0.0359 | -0.0914 | 0.0002 | 0.027 | 0.633 | 0.566 | 0.656 | 0.46 | 0.481 | 0.694 | 0.73 | 0.732 | 0.804 | 0.625 | 0.677 | 0.818 | 0.344
8 | CCN(CCO)CCCOc1ccc2c(Nc3cc(CC(=O)Nc4cccc(F)c4)[nH]n3)ncnc2c1 [AZD2811] + O=C(c1cc(Cc2n[nH]c(=O)c3ccccc23)ccc1F)N1CCN(C(=O)C2CC2)CC1 [Olaparib] (first compound max 1 µM, 7x7, partner max 10 µM) | -0.0179 | -0.0279 | 0.0233 | 0.0113 | -0.0339 | 0.0034 | 0.073 | 0.233 | 0.336 | 0.617 | 0.226 | 0.0869 | 0.18 | 0.381 | 0.491 | 0.698 | 0.408 | 0.335 | 0.415 | 0.239
9 | CN(CCO)CC[C@H](CSc1ccccc1)Nc1ccc(S(=O)(=O)NC(=O)c2ccc(N3CCC([C@@H](O)c4ccccc4-c4ccc(Cl)cc4)CC3)cc2)cc1S(=O)(=O)C(F)(F)F [AZD4320] + C1CN(CCC1(C(=O)N[C@@H](CCO)C2=CC=C(C=C2)Cl)N)C3=NC=NC4=C3C=CN4 [Capivasertib] (first compound max 1 µM, 7x7, partner max 3 µM) | -0.067 | 0.0394 | -0.0441 | -0.0467 | -0.0428 | -0.0459 | -0.07 | 0.735 | 0.383 | 0.246 | 0.271 | 0.264 | 0.0692 | 0.412 | 0.3 | 0.86 | 0.0874 | 0.271 | 0.264 | 0.24
10 | CN(CCO)CC[C@H](CSc1ccccc1)Nc1ccc(S(=O)(=O)NC(=O)c2ccc(N3CCC([C@@H](O)c4ccccc4-c4ccc(Cl)cc4)CC3)cc2)cc1S(=O)(=O)C(F)(F)F [AZD4320] + C=CCn1c(=O)c2cnc(Nc3ccc(N4CCN(C)CC4)cc3)nc2n1-c1cccc(C(C)(C)O)n1 [AZD1775] (first compound max 1 µM, partner max 1 µM) | -0.0353 | 0.0269 | 0.127 |  | 0.001 | 0.0195 | 0.0098 | 0.707 | 0.662 | 0.69 | 0.468 | 0.439 | 0.264 | 0.929 | 0.174 | 1 | 0.749 | 0.266 | 0.623 | 0.528
11 | COc1nnc2ccc(N3CCC(c4ccc(OCCN5CCN(C)C(=O)[C@H]5C)cc4)CC3)nn12 [AZD5153] + CN(CC[C@H](CSC1=CC=CC=C1)NC2=C(C=C(C=C2)S(=O)(=O)NC(=O)C3=CC=C(C=C3)N4CCC(CC4)[C@H](C5=CC=CC=C5C6=CC=C(C=C6)Cl)O)S(=O)(=O)C(F)(F)F)CCO [AZD4320] (first compound max 1 µM, 7x7, partner max 1 µM) |  |  | 0.0023 |  |  | -0.012 | -0.0137 |  | 0.969 |  |  |  | 0.3 | 0.8 |  | 0.801 | 0.476 |  |  | 
12 | Cc1c2c(nn1C)CSCc1cc(n(C)n1)CSc1cc(c3ccccc3c1)OCCCc1c(C(=O)O)n(C)c3c-2c(Cl)ccc13 [AZD5991] + Cc1cc2ncnn2cc1Nc1ncc2c(n1)n(C1CCOCC1)c(=O)n2C [AZD7648] (first compound max 1 µM, 7x7, partner max 10 µM) | -0.0218 |  | -0.0307 | -0.0188 | -0.0134 | -0.104 | -0.0227 | 0.892 | 1 | 0.456 | 0.223 | 0.402 | 0.353 | 0.485 | 1 | 0.988 | 0.331 | 0.329 | 0.441 | 0.284
13 | C[C@@H]1COCCN1c1cc(C2([S@](C)(=N)=O)CC2)nc(-c2ccnc3[nH]ccc23)n1 [AZD6738] + O=C(c1cc(Cc2n[nH]c(=O)c3ccccc23)ccc1F)N1CCN(C(=O)C2CC2)CC1 [Olaparib] (first compound max 10 µM, 7x7, partner max 10 µM) | 0.0086 | 0.013 | -0.0358 | 0.0046 | -0.0105 | -0.0088 | -0.021 | 0.689 | 0.584 | 0.699 | 0.951 |  | 0.697 | 0.777 | 0.621 | 0.786 | 0.66 | 0.674 | 0.846 | 0.305
14 | CC(=O)c1c(C)c2cnc(Nc3ccc(N4CCNCC4)cn3)nc2n(C2CCCC2)c1=O [Palbociclib] + CN(CC[C@H](CSC1=CC=CC=C1)NC2=C(C=C(C=C2)S(=O)(=O)NC(=O)C3=CC=C(C=C3)N4CCC(CC4)[C@H](C5=CC=CC=C5C6=CC=C(C=C6)Cl)O)S(=O)(=O)C(F)(F)F)CCO [AZD4320] (first compound max 10 µM, 7x7, partner max 1 µM) |  |  | -0.066 |  |  | -0.0291 | -0.075 |  | 0.388 |  |  |  | 0.0805 | 0.831 |  | 0.677 | 0.373 |  |  | 
